Measured values from patent publication US8486996B2, “Aroylfuranes and aroylthiophenes” (Basilea Pharmaceutica AG, priority 2006, dated 2013).
Where two headings read alike, the source gives them in different places.

Columns and labels:
Assay type in all cases: cell-based
[1] = Hoechst 33342 nuclear staining (48 h read-out)
Summary of the method: (§1)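 Adherent cells pre-spread 24 h before dosing, suspension cells dosed at seeding; compounds at 0.001 μM-10 μM final, 48 h at culture conditions. Hoechst 33342 (2-5 μg/ml) added for 30 min, then fluorescence microscopy scoring of apoptotic nuclear fraction and apoptosis-specific morphology, reported as scores A-D.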

tumor cells [2] = test: Hoechst 33342 nuclear staining (48 h read-out)
Summary of the method: as §1

[3] = MTS proliferation assay (72 h read-out); settings: MRC5 cells
Summary of the method: (§2)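 Tumour cells (1.5×10^3–10^4 per well) were seeded 24 h before compound addition, then exposed to 0.001–10 μM final compound for 72 h under culture conditions. MTS reagent was added for a further 3 h, absorbance was read at 492 nm, and results were binned into scores A–D.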

tumor cells [4] = test: MTS proliferation assay (72 h read-out)
Summary of the method: as §2

[5] = Mitochondrial membrane potential, JC-1 (read-out 48 h); settings: PBL, JC-1, 48 h
Summary of the method: (§3)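 Tumor cells were treated with test compounds (adherent cells after 24 h of attachment, suspension cells immediately), medium holding up to 5% DMSO. After 48 h, JC-1 (2-5 μg/ml in added medium) was applied for 30 min. Fluorescence microscopy (FITC/TRITC filters) scored the fraction of cells with dissipated mitochondrial membrane potential as categories A-D.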

tumor cells [6] = test: as above; settings: JC-1, 48 h
Summary of the method: as §3

[7] = MRC5 cells, read-out: Hoechst 33342 nuclear staining EC50, MRC5
[8] = PBL, read-out: Hoechst 33342 nuclear staining EC50, PBL
[9] = HeLa cells, read-out: Hoechst 33342 nuclear staining EC50, HeLa
[10] = Jily cells, read-out: Hoechst 33342 nuclear staining EC50, Jily
[11] = Jurkat cells, read-out: Hoechst 33342 nuclear staining EC50, Jurkat
[12] = HT1080 cells, read-out: MTS proliferation assay IC50, HT1080
[13] = HeLa cells, read-out: MTS proliferation assay IC50, HeLa
[14] = Jily cells, read-out: MTS proliferation assay IC50, Jily
[15] = HeLa cells, read-out: Mitochondrial membrane potential (read-out 48 h) HeLa
[16] = Jily cells, read-out: Mitochondrial membrane potential (read-out 48 h) Jily
[17] = Jurkat cells, read-out: Mitochondrial membrane potential (read-out 48 h) Jurkat
[18] = MCF7 cells, read-out: Mitochondrial membrane potential (read-out 48 h) MCF7
[19] = Jurkat cells, read-out: MTS proliferation assay IC50, Jurkat

CCOc1ccc(F)cc1C(=O)c1cc2cc(OCOC)ccc2o1 [Example 69]
EC50 [1, 7]: > 1000 nM
EC50 [1, 8]: > 1000 nM
EC50 (tumor cells [2]; [9]): 100 to 1000 nM
EC50 (tumor cells [2]; [10]): 100 to 1000 nM
EC50 (tumor cells [2]; [11]): 100 to 1000 nM
IC50 [3]: 100 to 1000 nM
IC50 (tumor cells [4]; [12]): 100 to 1000 nM
IC50 (tumor cells [4]; [13]): 100 to 1000 nM
IC50 (tumor cells [4]; [14]): 100 to 1000 nM
EC50 [5]: > 1000 nM
EC50 (tumor cells [6]; [15]): > 1000 nM
EC50 (tumor cells [6]; [16]): 100 to 1000 nM
EC50 (tumor cells [6]; [17]): 100 to 1000 nM
EC50 (tumor cells [6]; [18]): > 1000 nM

CCOc1ccc(F)cc1C(=O)c1cc2cc(OCCOC)ccc2o1 [Example 70]
EC50 [1, 7]: 100 to 1000 nM
EC50 [1, 8]: > 1000 nM
EC50 (tumor cells [2]; [9]): 100 to 1000 nM
EC50 (tumor cells [2]; [10]): 100 to 1000 nM
EC50 (tumor cells [2]; [11]): 100 to 1000 nM
IC50 [3]: 100 to 1000 nM
IC50 (tumor cells [4]; [12]): 100 to 1000 nM
IC50 (tumor cells [4]; [13]): 100 to 1000 nM
IC50 (tumor cells [4]; [14]): 100 to 1000 nM
EC50 [5]: > 1000 nM
EC50 (tumor cells [6]; [15]): > 1000 nM
EC50 (tumor cells [6]; [16]): 100 to 1000 nM
EC50 (tumor cells [6]; [17]): 100 to 1000 nM
EC50 (tumor cells [6]; [18]): > 1000 nM

CCOc1ccc(F)cc1C(=O)c1cc2cc(OCCN(C)C)ccc2o1 [Example 71]
EC50 [1, 7]: > 1000 nM
EC50 [1, 8]: > 1000 nM
EC50 (tumor cells [2]; [9]): > 1000 nM
EC50 (tumor cells [2]; [10]): > 1000 nM
EC50 (tumor cells [2]; [11]): > 1000 nM
IC50 [3]: > 1000 nM
IC50 (tumor cells [4]; [12]): > 1000 nM
IC50 (tumor cells [4]; [13]): > 1000 nM
IC50 (tumor cells [4]; [14]): > 1000 nM
EC50 [5]: > 1000 nM
EC50 (tumor cells [6]; [15]): > 1000 nM
EC50 (tumor cells [6]; [16]): > 1000 nM
EC50 (tumor cells [6]; [17]): > 1000 nM
EC50 (tumor cells [6]; [18]): > 1000 nM

CCOc1ccc(F)cc1C(=O)c1cc2cc(OC(=O)N(C)C)ccc2o1 [Example 72]
EC50 [1, 7]: > 1000 nM
EC50 [1, 8]: > 1000 nM
EC50 (tumor cells [2]; [9]): > 1000 nM
EC50 (tumor cells [2]; [10]): 100 to 1000 nM
EC50 (tumor cells [2]; [11]): 100 to 1000 nM
IC50 [3]: 100 to 1000 nM
IC50 (tumor cells [4]; [12]): 100 to 1000 nM
IC50 (tumor cells [4]; [13]): 100 to 1000 nM
IC50 (tumor cells [4]; [14]): 100 to 1000 nM
EC50 [5]: > 1000 nM
EC50 (tumor cells [6]; [15]): > 1000 nM
EC50 (tumor cells [6]; [16]): 100 to 1000 nM
EC50 (tumor cells [6]; [17]): 100 to 1000 nM
EC50 (tumor cells [6]; [18]): > 1000 nM

CCOc1ccc(F)cc1C(=O)c1cc2cc(Oc3ccccn3)ccc2o1 [Example 73]
EC50 [1, 7]: 100 to 1000 nM
EC50 [1, 8]: > 1000 nM
EC50 (tumor cells [2]; [9]): 100 to 1000 nM
EC50 (tumor cells [2]; [10]): 100 to 1000 nM
EC50 (tumor cells [2]; [11]): 100 to 1000 nM
IC50 [3]: 100 to 1000 nM
IC50 (tumor cells [4]; [12]): 100 to 1000 nM
IC50 (tumor cells [4]; [13]): 100 to 1000 nM
IC50 (tumor cells [4]; [14]): 100 to 1000 nM
EC50 [5]: > 1000 nM
EC50 (tumor cells [6]; [15]): 100 to 1000 nM
EC50 (tumor cells [6]; [16]): 100 to 1000 nM
EC50 (tumor cells [6]; [17]): 100 to 1000 nM
EC50 (tumor cells [6]; [18]): > 1000 nM

CCOc1ccc(F)cc1C(=O)c1cc2cc(CN(CC)CC)ccc2o1 [Example 74]
EC50 [1, 7]: > 1000 nM
EC50 [1, 8]: > 1000 nM
EC50 (tumor cells [2]; [9]): > 1000 nM
EC50 (tumor cells [2]; [10]): > 1000 nM
EC50 (tumor cells [2]; [11]): > 1000 nM
IC50 [3]: > 1000 nM
IC50 (tumor cells [4]; [12]): > 1000 nM
IC50 (tumor cells [4]; [13]): > 1000 nM
IC50 (tumor cells [4]; [14]): > 1000 nM
EC50 [5]: > 1000 nM
EC50 (tumor cells [6]; [15]): > 1000 nM
EC50 (tumor cells [6]; [16]): > 1000 nM
EC50 (tumor cells [6]; [17]): > 1000 nM
EC50 (tumor cells [6]; [18]): > 1000 nM

CCNc1ncccc1C(=O)c1oc2ccc(Cl)cc2c1N [Example 76]
EC50 [1, 7]: > 1000 nM
EC50 [1, 8]: > 1000 nM
EC50 (tumor cells [2]; [9]): > 1000 nM
EC50 (tumor cells [2]; [10]): > 1000 nM
EC50 (tumor cells [2]; [11]): > 1000 nM
IC50 [3]: > 1000 nM
IC50 (tumor cells [4]; [12]): > 1000 nM
IC50 (tumor cells [4]; [13]): > 1000 nM
IC50 (tumor cells [4]; [14]): > 1000 nM
EC50 [5]: > 1000 nM
EC50 (tumor cells [6]; [15]): > 1000 nM
EC50 (tumor cells [6]; [16]): > 1000 nM
EC50 (tumor cells [6]; [17]): > 1000 nM
EC50 (tumor cells [6]; [18]): > 1000 nM

CN(C)c1ncccc1C(=O)c1oc2ccc(Cl)cc2c1N [Example 77]
EC50 [1, 7]: > 1000 nM
EC50 [1, 8]: > 1000 nM
EC50 (tumor cells [2]; [9]): > 1000 nM
EC50 (tumor cells [2]; [10]): 100 to 1000 nM
EC50 (tumor cells [2]; [11]): 100 to 1000 nM
IC50 [3]: > 1000 nM
IC50 (tumor cells [4]; [12]): > 1000 nM
IC50 (tumor cells [4]; [13]): > 1000 nM
IC50 (tumor cells [4]; [14]): 100 to 1000 nM
EC50 [5]: > 1000 nM
EC50 (tumor cells [6]; [15]): > 1000 nM
EC50 (tumor cells [6]; [16]): 100 to 1000 nM
EC50 (tumor cells [6]; [17]): 100 to 1000 nM
EC50 (tumor cells [6]; [18]): > 1000 nM

Nc1c(C(=O)c2cccnc2N2CCCC2)oc2ccc(Cl)cc12 [Example 79]
EC50 [1, 7]: > 1000 nM
EC50 [1, 8]: > 1000 nM
EC50 (tumor cells [2]; [9]): > 1000 nM
EC50 (tumor cells [2]; [10]): > 1000 nM
EC50 (tumor cells [2]; [11]): 100 to 1000 nM
IC50 [3]: > 1000 nM
IC50 (tumor cells [4]; [12]): 100 to 1000 nM
IC50 (tumor cells [4]; [13]): 100 to 1000 nM
IC50 (tumor cells [4]; [14]): 100 to 1000 nM
IC50 (tumor cells [4]; [19]): 100 to 1000 nM
EC50 [5]: > 1000 nM
EC50 (tumor cells [6]; [15]): > 1000 nM
EC50 (tumor cells [6]; [16]): 100 to 1000 nM
EC50 (tumor cells [6]; [17]): 100 to 1000 nM
EC50 (tumor cells [6]; [18]): > 1000 nM

CCN(CC)c1ncccc1C(=O)c1oc2ccc(Cl)cc2c1N [Example 81]
EC50 [1, 7]: > 1000 nM
EC50 [1, 8]: > 1000 nM
EC50 (tumor cells [2]; [9]): 100 to 1000 nM
EC50 (tumor cells [2]; [10]): 100 to 1000 nM
EC50 (tumor cells [2]; [11]): 100 to 1000 nM
IC50 [3]: 100 to 1000 nM
IC50 (tumor cells [4]; [12]): 10 to 100 nM
IC50 (tumor cells [4]; [13]): 100 to 1000 nM
IC50 (tumor cells [4]; [14]): 100 to 1000 nM
IC50 (tumor cells [4]; [19]): 10 to 100 nM
EC50 [5]: > 1000 nM
EC50 (tumor cells [6]; [15]): > 1000 nM
EC50 (tumor cells [6]; [16]): 100 to 1000 nM
EC50 (tumor cells [6]; [17]): 10 to 100 nM
EC50 (tumor cells [6]; [18]): > 1000 nM

CC1CN(c2ncccc2C(=O)c2oc3ccc(Cl)cc3c2N)CC(C)O1 (stereo not shown) [Example 83]
EC50 [1, 7]: 100 to 1000 nM
EC50 [1, 8]: > 1000 nM
EC50 (tumor cells [2]; [9]): 100 to 1000 nM
EC50 (tumor cells [2]; [10]): 100 to 1000 nM
EC50 (tumor cells [2]; [11]): 10 to 100 nM
IC50 [3]: 10 to 100 nM
IC50 (tumor cells [4]; [12]): 10 to 100 nM
IC50 (tumor cells [4]; [13]): 100 to 1000 nM
IC50 (tumor cells [4]; [14]): 10 to 100 nM
IC50 (tumor cells [4]; [19]): 10 to 100 nM
EC50 [5]: > 1000 nM
EC50 (tumor cells [6]; [15]): 100 to 1000 nM
EC50 (tumor cells [6]; [16]): 100 to 1000 nM
EC50 (tumor cells [6]; [17]): 10 to 100 nM
EC50 (tumor cells [6]; [18]): 100 to 1000 nM
